Data on 1 compound can be found in ChEMBL document CHEMBL6178023 (J Med Chem, 2025).

Broadly, the solubility (kinetic) is the concentration staying in solution when a stock, usually in DMSO, is diluted into the medium. As usually defined, the IC50 is the concentration needed to halve the response being measured.

For data set [1], the system named is Mayaro virus. Kind of data set: Anti-viral activity against MAYV infected in human NHDF cells assessed as log reduction in viral titer at 0.01 to 100 uM incubated with cells for 1 hr followed by viral infection for 2 hrs and subsequent replacement of fresh media with compound measured after 24 hrs post-infection by extracting viral supernatant from cells and transferring supernatant to African geen monkey Vero cells for measuring plaque formation. The class given is functional. The settings on record: dose 0.01-100 µM; time 25 hrs.

Data set [2] has as its target Polyprotein P1234 (Chikungunya virus (strain S27-African prototype) (CHIKV)) (UniProt Q8JUX6). The data set is described as follows: Binding affinity to N-terminal 6-His/SUMO-tagged CHIKV 181/25 nsP2 extracted from Escherichia coli Rosetta 2 using fluorescein-labeled dsRNA template incubated for 30 mins by fluorescence polarization assay.
Target sequence in this assay (Q8JUX6 whole entry): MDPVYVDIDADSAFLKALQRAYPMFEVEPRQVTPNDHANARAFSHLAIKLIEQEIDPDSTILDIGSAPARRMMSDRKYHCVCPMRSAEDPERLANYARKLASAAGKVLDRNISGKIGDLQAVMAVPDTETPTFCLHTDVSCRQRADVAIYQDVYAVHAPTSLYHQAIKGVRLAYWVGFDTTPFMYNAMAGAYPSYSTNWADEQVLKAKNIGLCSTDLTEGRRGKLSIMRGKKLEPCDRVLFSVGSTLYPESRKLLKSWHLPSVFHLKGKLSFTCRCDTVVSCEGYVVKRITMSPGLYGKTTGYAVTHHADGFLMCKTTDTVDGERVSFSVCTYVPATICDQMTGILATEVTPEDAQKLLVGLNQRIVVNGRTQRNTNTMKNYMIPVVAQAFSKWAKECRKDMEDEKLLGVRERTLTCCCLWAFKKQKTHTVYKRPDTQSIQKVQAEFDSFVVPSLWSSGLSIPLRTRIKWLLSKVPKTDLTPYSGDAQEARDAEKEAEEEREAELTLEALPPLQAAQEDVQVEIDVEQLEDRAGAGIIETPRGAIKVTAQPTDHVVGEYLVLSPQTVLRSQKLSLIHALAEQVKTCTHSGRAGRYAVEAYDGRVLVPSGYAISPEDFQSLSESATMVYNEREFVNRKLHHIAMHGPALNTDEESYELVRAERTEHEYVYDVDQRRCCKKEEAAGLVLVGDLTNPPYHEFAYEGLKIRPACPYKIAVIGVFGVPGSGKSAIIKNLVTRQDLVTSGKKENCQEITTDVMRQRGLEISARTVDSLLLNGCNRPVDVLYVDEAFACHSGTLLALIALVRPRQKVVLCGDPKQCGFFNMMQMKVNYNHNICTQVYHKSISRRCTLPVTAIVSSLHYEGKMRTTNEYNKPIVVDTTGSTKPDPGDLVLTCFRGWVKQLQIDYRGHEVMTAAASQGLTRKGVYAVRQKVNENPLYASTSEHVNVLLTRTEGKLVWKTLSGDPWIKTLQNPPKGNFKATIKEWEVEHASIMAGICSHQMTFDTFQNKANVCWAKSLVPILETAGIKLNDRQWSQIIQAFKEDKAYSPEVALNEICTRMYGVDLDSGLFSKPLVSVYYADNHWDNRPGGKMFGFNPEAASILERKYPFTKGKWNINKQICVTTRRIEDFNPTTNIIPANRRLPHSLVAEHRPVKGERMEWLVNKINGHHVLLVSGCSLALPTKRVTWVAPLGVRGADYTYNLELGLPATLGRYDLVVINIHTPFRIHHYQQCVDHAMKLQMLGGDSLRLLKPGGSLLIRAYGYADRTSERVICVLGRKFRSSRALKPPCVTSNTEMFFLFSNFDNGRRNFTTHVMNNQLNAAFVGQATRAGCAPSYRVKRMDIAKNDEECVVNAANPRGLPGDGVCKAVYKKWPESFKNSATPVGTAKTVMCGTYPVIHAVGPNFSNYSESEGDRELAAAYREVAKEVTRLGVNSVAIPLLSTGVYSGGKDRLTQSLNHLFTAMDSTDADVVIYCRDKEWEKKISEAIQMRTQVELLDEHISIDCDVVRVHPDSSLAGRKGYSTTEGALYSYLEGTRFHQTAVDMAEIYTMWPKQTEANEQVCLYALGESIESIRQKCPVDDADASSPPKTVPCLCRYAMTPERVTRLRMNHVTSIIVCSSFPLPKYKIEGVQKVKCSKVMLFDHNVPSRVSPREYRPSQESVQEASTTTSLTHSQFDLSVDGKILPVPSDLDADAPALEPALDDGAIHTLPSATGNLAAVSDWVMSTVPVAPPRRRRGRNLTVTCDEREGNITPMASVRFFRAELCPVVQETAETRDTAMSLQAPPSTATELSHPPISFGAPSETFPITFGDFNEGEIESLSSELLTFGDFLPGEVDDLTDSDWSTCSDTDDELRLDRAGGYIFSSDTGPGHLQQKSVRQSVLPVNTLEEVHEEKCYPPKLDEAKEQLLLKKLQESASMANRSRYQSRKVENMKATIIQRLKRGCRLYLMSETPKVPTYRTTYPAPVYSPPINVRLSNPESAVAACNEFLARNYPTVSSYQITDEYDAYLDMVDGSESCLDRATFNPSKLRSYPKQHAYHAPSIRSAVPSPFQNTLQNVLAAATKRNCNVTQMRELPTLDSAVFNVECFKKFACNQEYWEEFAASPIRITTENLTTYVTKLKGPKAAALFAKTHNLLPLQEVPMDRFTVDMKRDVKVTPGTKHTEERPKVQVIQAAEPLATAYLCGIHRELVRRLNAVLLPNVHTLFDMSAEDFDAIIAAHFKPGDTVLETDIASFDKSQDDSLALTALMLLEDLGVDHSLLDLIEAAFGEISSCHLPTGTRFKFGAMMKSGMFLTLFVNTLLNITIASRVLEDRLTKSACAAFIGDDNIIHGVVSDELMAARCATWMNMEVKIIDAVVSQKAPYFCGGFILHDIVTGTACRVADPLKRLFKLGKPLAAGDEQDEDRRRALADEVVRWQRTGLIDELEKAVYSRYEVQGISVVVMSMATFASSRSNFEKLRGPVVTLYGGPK
For data set [3] the target is unchanged. The data set is described as follows: Binding affinity to N-terminal 6-His/SUMO-tagged CHIKV 181/25 nsP2 extracted from Escherichia coli Rosetta 2 assessed as unchanged Km up to 2.5 uM in presence of [alpha-32P]-ATP by TLC method.
Target sequence in this assay (Q8JUX6 whole entry): as above
The next data set concerns MRC5. The data set is described as follows: Cytotoxicity against human MRC5 cells at 10 to 40 uM by Cell Titer Glo assay. The settings on record: mrc5, 40 µM, dose 10-40 µM. In kind it is toxicity, cell-based. For orientation: In ATP-based viability assays light output follows the ATP content of the culture.
Data set [4] concerns Chikungunya virus. Kind of data set: Anti-viral activity against CHIKV infected in human NHDF cells assessed as reduction in viral titer incubated with cells for 1 hr followed by viral infection for 2 hrs and subsequent replacement of fresh media with compound measured after 24 hrs post-infection by extracting viral supernatant from cells and transferring supernatant to African geen monkey Vero cells for measuring plaque formation. In kind it is functional, organism-based. The settings on record: dose 0.01-100 µM, time 25.0 hrs.

The target of data set [5] is Polyprotein P1234 (Chikungunya virus (strain S27-African prototype) (CHIKV)) (UniProt Q8JUX6). The data set is described as follows: Inhibition of N-terminal 6-His/SUMO-tagged CHIKV 181/25 nsP2 extracted from Escherichia coli Rosetta 2 assessed as decrease in nsP2 ATPase activity up to 100 uM measured for 5 to 10 mins in presence of [alpha-32P]-ATP by TLC method. The settings on record: time 5-10 min.
Target sequence in this assay (Q8JUX6 whole entry): as above

Data set [6] can be described thus: Aqueous solubility of compound in PBS at pH 7.4. In kind it is physicochemical.
Data set [7] concerns the target Polyprotein P1234 (Chikungunya virus (strain S27-African prototype) (CHIKV)) (UniProt Q8JUX6). The data set is described as follows: Binding affinity to N-terminal 6-His/SUMO-tagged CHIKV 181/25 nsP2 extracted from Escherichia coli Rosetta 2 assessed as decrease in Vmax up to 2.5 uM in presence of [alpha-32P]-ATP by TLC method.
Target sequence in this assay (Q8JUX6 whole entry): as above
The target of data set [8] is T1, Polyprotein P1234 (Chikungunya virus (strain S27-African prototype) (CHIKV), UniProt Q8JUX6). Kind of data set: Inhibition of N-terminal 6-His/SUMO-tagged CHIKV 181/25 nsP2 extracted from Escherichia coli Rosetta 2 preincubated for 30 mins followed by ATP addition measured after 1 hr by ADP-Glo assay. (In general: In ADP-Glo the light output rises with the ADP produced.)

Data set [9] has as its system Mayaro virus. The data set is described as follows: Anti-viral activity against MAYV infected in human NHDF cells assessed as reduction in viral titer incubated with cells for 1 hr followed by viral infection for 2 hrs and subsequent replacement of fresh media with compound measured after 24 hrs post-infection by extracting viral supernatant from cells and transferring supernatant to African geen monkey Vero cells for measuring plaque formation. The settings on record: dose 0.01-100 µM, time 25.0 hrs. In kind it is functional, organism-based.

In data set [10] the test system is Chikungunya virus. The data set is described as follows: Antiviral activity against CHIKV 181/25 expressing nLuc-capsid gene infected in human MRC5 cells assessed as reduction in viral replication preincubated with cells for 1 hr followed by viral infection measured after 6 hrs post-infection by Nano-glo luciferase assay. The class given is functional, organism-based. The settings on record: 181/25, MRC5, read-out: pEC50 (converted).

The target in data set [11] is Polyprotein P1234 (Chikungunya virus (strain S27-African prototype) (CHIKV)) (UniProt Q8JUX6). The data set is described as follows: (§1) Inhibition of N-terminal 6-His/SUMO-tagged CHIKV 181/25 nsP2 extracted from Escherichia coli Rosetta 2 assessed as decrease in nsP2 helicase activity in presence of RNA duplex composed of 39mer loading RNA strand/19mer displaced RNA strand by gel electrophoresis. The settings on record: dose 0.01-100 µM.
Target sequence in this assay (Q8JUX6 536-1333 limits assumed): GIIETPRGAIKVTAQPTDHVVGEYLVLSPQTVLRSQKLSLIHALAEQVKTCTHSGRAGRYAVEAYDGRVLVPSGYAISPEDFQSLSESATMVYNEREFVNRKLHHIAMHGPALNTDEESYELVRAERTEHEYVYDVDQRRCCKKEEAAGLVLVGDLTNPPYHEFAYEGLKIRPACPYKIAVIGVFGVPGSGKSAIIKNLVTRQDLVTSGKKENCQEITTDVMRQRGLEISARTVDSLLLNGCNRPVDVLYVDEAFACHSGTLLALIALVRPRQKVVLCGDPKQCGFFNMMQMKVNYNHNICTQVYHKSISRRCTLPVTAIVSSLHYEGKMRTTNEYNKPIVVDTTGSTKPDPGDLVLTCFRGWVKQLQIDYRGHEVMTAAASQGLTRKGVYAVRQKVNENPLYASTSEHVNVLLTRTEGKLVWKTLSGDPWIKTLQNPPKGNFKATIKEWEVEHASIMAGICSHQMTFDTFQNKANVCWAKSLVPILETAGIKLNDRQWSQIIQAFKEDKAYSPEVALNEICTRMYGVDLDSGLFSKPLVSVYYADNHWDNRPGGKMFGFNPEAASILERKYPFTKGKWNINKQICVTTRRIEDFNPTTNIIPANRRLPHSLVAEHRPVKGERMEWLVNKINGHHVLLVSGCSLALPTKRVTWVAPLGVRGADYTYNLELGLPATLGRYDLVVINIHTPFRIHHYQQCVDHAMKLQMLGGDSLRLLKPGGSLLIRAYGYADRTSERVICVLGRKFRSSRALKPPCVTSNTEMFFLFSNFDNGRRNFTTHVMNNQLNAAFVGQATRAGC

In data set [12] the target is T1, Polyprotein P1234. The data set is described as §1.

Calls of active or inactive are those of the source. No cut-off for these calls is given here.

T1 sequence (Q8JUX6 536-1333 limits assumed): as above

`O=C(N1CCC2(CC1)CC(CN1CCCCS1(=O)=O)CCO2)C1(c2ccccc2)CCCC1` (stereo not drawn): the Activity with Mayaro virus [1] is 0.01 10^5No_unit; in [2], “Active; Compound Did Not Involve Direct Displacement Of Rna Substrate Suggesting Allosteric Mechanism Of Helicase Inhibition”; in the data set on MRC5, “Non-toxic”; in the data set with Chikungunya virus [4], “Dose-dependent-effect”; in the data set with Mayaro virus [9], “Dose-dependent-effect”. Besides, the outcome in [3] and in data set [7] was Active. For the same compound, the figures for the inhibition result in data set [5] and in [11] were “Active; Ic50 Of Compound Was Same At Both # And # Mins” and “Dose-dependent-effect”, respectively. This compound displayed a solubility (kinetic) in data set [6] greater than 220 µM. In addition, the half-inhibitory concentration (IC50) is 501 nM against Polyprotein P1234 [8] and 900 nM at Polyprotein P1234 [12]. In addition, the EC50 in the data set with Chikungunya virus [10] is 126 nM.
